Experiments:
[1] = tested on: adult subjects with schizophrenia; test: CGI Severity of Illness score, Clinical Study Two; format: in vivo, human; settings: LOCF; for Change from Baseline in CGI Severity of Illness Score, Mean (SD) / Change from Baseline in CGI Severity of Illness Score, Median: Risperidone 6 mg, ITT population
Procedure: Rating scale assessments were performed weekly, except for week 5, to measure the change from baseline to endpoint of the PANSS total score. Other assessments included: PANSS positive symptom subscale score, PANSS negative symptom subscale score, PANSS general pschopathology subscale score, BPRS total score, BPRS psychosis score, the CGI-S score, the CGI-I score, responder rates based on the PANSS total score, and the Calgary Depression Scale for Schizophrenia (CDSS). […]
Subjects who completed this study had the option to continue in the long-term. […] Risperidone-treated subjects were titrated from 2 mg to 6 mg daily over a three-day period and were subsequently maintained at 6 mg/day for the remainder of the treatment period. […] Blood samples were also obtained at Screening/Baseline, Week 3, and Week 6 for clinical laboratory assessments.

[2] = tested on: adult subjects with schizophrenia; test: CGI Improvement score, Clinical Study One; format: in vivo, human; settings: 6 mg
Procedure: There were five treatment groups in this study. […] Study medication was administered once daily. After Baseline measurements were performed, the titration phase was begun. Bifeprunox treated subjects were titrated up to 5 mg, 10 mg or 20 mg according to a standardized titration schedule (Day 1: 0.125 mg, Day 2: 0.25 mg, Day 3: 0.5 mg, Day 4: 1.0 mg, Day 5: 2.0 mg, Day 6: 5.0 mg, Day 7: 10.0 mg, Day 8: 20 mg). When the assigned dose was reached, subjects were maintained at that dose for the remainder of the six-week treatment period.
The change in the Positive and Negative Symptom Scale (PANSS) total score, from baseline to endpoint, was the primary outcome measure. Secondary efficacy measures included: PANSS positive, PANSS negative, PANSS general psychopathology (GPP) score, PANSS-derived Brief Psychiatric Rating Scale (BPRS) score, Clinical Global Impressions-Severity of Illness (CGI-S), CGI-Improvement (CGI-I) scores, and responder rates. Safety and tolerability evaluations included extrapyramidal symptoms (EPS), weight gain, lipid profile, and serum prolactin.

[3] = Clinical laboratory assessments (prolactin), Clinical Study Three; settings: olanzapine 15 mg; 6 weeks
Source text: To assess the safety and tolerability of bifeprunox using physical examination, weight, waist circumference, vital signs (pulse rate and systolic/diastolic blood pressure [BP], and oral temperature), 12-lead electrocardiogram (ECG), clinical laboratory assessments (hematology, biochemistry including fasting insulin level, fasting glucose, fasting lipid profile, urinalysis, special laboratory assessments for prolactin, IGF-1, IGFBP-3, and thyroid function), need for anticholinergic treatment during double-blind treatment period, concomitant medication use, adverse event (AE) monitoring, and assessments of abnormal movement including the Simpson-Angus Scale (SAS), Barnes Akathisia Scale (BAS), and Abnormal Involuntary Movement Scale (AIMS).

Cc1nc2n(c(=O)c1CCN1CCC(c3noc4cc(F)ccc34)CC1)CCCC2 [Risperidone, risperidone, reference compound]
Change from Baseline in CGI Severity of Illness Score, Mean (SD) ([1]; Week 1): −0.39 (0.63) | Change from Baseline in CGI Severity of Illness Score, Median ([1]; Week 1): 0.0 | Change from Baseline in CGI Severity of Illness Score, Mean (SD) ([1]; Week 2): −0.73 (0.95) | Change from Baseline in CGI Severity of Illness Score, Median ([1]; Week 2): −1.0 | Change from Baseline in CGI Severity of Illness Score, Mean (SD) ([1]; Week 3): −0.94 (1.00) | Change from Baseline in CGI Severity of Illness Score, Median ([1]; Week 3): −1.0 | Change from Baseline in CGI Severity of Illness Score, Mean (SD) ([1]; Week 4): −1.02 (1.09) | Change from Baseline in CGI Severity of Illness Score, Median ([1]; Week 4): −1.0 | Change from Baseline in CGI Severity of Illness Score, Mean (SD) ([1]; Week 6/Endpoint): −1.06 (1.20) | Change from Baseline in CGI Severity of Illness Score, Median ([1]; Week 6/Endpoint): −1.0 | mean change (SD) from Baseline to Endpoint in CGI severity of illness score ([1]; risperidone 6 mg, ITT): −1.06 (1.20) | Actual Value of CGI Improvement Score, Mean (S.D.) ([2]; Endpoint LOCF): 3.02 (1.21) | Actual Value of CGI Improvement Score, Median ([2]; Endpoint LOCF): 3.0 | Actual Value of CGI Improvement Score, Mean (S.D.) ([2]; Week 1, LOCF): 3.43 (0.97) | Actual Value of CGI Improvement Score, Median ([2]; Week 1, LOCF): 3.0 | Actual Value of CGI Improvement Score, Median ([2]; Week 2, LOCF): 3.0 | Actual Value of CGI Improvement Score, Mean (S.D.) ([2]; Week 3, LOCF): 2.97 (1.05) | Actual Value of CGI Improvement Score, Median ([2]; Week 3, LOCF): 3.0 | Actual Value of CGI Improvement Score, Mean (S.D.) ([2]; Week 4, LOCF): 3.05 (1.11) | Actual Value of CGI Improvement Score, Median ([2]; Week 4, LOCF): 3.0

Cc1cc2c(s1)Nc1ccccc1N=C2N1CCN(C)CC1 [Olanzapine, olanzapine, reference compound]
prolactin [3]: increases in prolactin

Reference: patent publication US20090068290A1, “BIFEPRUNOX DOSES FOR TREATING SCHIZOPHRENIA” (priority 2006, published 2009)
